In patent publication US10287259B2, “Selenazolidine and thiazolidine compounds for treating cancer and other diseases” (The Penn State Research Foundation, priority 2016, dated 2019):

Experiments:
Type in all cases: cell-based
pancreatic cancer cells = test: MTT cell viability assay, pancreatic cancer (PC) cells; details: screening
Protocol: (§1) MTT (3-(4,5-dimethylthiazol-2-yl)-2,5-diphenyltetrazolium) assay was performed to determine the effect of AS-10 on cancer cell viability (Plano et al., 2016, J. Med. Chem. 1946-1959; Alcolea et al., 2012, Eur. J. Med. Chem. 113:134-144; Kumar et al., 2014, Eur. J. Med. Chem. 81:267-276). Briefly, 3×10^3 cells were treated with different concentrations of AS-10 in triplicate in a 96-well plate for different time points. MTT solution (20 μL of 5.0 mg/mL solution) was added to each well, three hours prior to termination time point and incubated at 37° C. Resultant formazan crystals, at termination time point, were dissolved in 50 μL DMSO. The plate was subjected to a 96-well multiscanner (Dynex Technologies, MRX Revelation; Chantilly, Va., USA) for measuring the optical densities at 570 nm and 630 nm. IC50 values were determined by performing non-linear regression using Graphpad Prism software.

LNCaP cells = test: MTT cell viability test, LNCaP
Protocol: as §1

Lung cancer cells (A549) = test: MTT cell viability assay, A549; details: A549, 48 h (FIG. 5C); acetate functionality removed
Protocol: as §1

Panc-1 cells [1] = test: Western blot analysis of Panc-1 lysates; details: Panc-1, 48 h; low dose AS-10 2.5 μM, gemcitabine 50 μM
Protocol: Whole-cell lysates were made by subjecting AS-10 treated Panc-1 cells to RIPA lysis buffer (Thermo Scientific, USA) containing protease (Roche, USA) and phosphatase inhibitor cocktails (Sigma-Aldrich, USA) (Plano et al., 2016, J. Med. Chem. 1946-1959). Lysates were spun at 15,000 rpm for 10 minutes. Resulting supernatant was stored at −80° C. until use. NuPAGE gel 4-12% (Life Technologies, Carlsbad, Calif.) was used to resolve the lysates, followed by electro-transfer to PVDF membrane. After the transfer membrane was blocked with 5% non-fat milk and probed with different antibodies. Protein of interest were detected by using enhanced Chemiluminescent reagent (Life technologies, USA). Blots were stripped using Restore Western blot stripping buffer (Thermo Scientific, USA) to save time and samples.

Panc-1 cells [2] = test: Muse Live/dead Annexin V assay; details: Panc-1, 48 h; AS-10 2.5 μM, gemcitabine 50 μM
Protocol: Muse Annexin V & Dead Cell kit was used to determine the apoptosis cells in AS-10 treated Panc-1 cells (Plano et al., 2016, J. Med. Chem. 1946-1959). The Muse Annexin V & Dead cell assay contains Annexin V to detect phosphatidylserine (PS) on the outer surface of cells. The kit also contains a dead cell marker, 7-amino-actinomycin D (7-AAD). […] In brief, Panc-1 (1.5×10^5) cells were treated with a given dose of AS-10 or DMSO for appropriate time (0, 6, 12, 24, 36, or 48 h). Both floating cells as well as adherent cells were collected and subjected for Annexin V staining using Muse Annexin V & Dead Cell kit with Muse cell analyzer (EMD Millipore, Billerica, Mass., USA). The obtained data were analyzed using Muse 1.4 software.

Panc-1 cells [3] = test: MTT cell viability assay, Panc-1
Protocol: as §1
To test the anti-cancer activity of AS-10 in pancreatic cancer (PC) cell lines, a MTT assay was performed. PC cell lines, Panc-1 and BxPC3, were treated with AS-10 at different doses at different time points (24, 48, and 72 h). Resulting cells were subjected to MTT cell viability assay. […] Panc-1 cells were treated with different doses of AS-10 for 48 h. After 48 h, live cells were counted and plated in a new petri dish. Cells were allowed to form colonies for 17 days. At the end of 17 days the colonies were counted and compared to the untreated cells.

Panc-1 cells [4] = test: Live/dead assay with calcein-AM and ethidium bromide; details: Panc-1, 48 h; AS-10 2.5 μM, gemcitabine 50 μM
Protocol: To determine the dead cell population, we used LIVE/DEAD Viability/Cytotoxicity Kit (L3224, Life technologies, USA). Panc-1 cells were treated with either DMSO, gemcitabine (50 μM), or AS-10 (2.5 μM) or in combination for 48 h. Live and dead cells were determined by subjecting treated cells to LIVE/DEAD Viability/Cytotoxicity Kit (Plano et al., 2016, J. Med. Chem. 1946-1959). […] While ethidium homodimer-1 can only enter cells who have lost their plasma membrane integrity or dead cells and fluorescents red. Stained cells were visualized using a fluorescence microscope (Zeiss—Axio Scope.A1) with a 20× objective lens. Percentage values of live and dead cells were calculated.

In the case of CC(=O)Oc1ccccc1C(=O)O [aspirin, reference compound], the “effect on PC cell lines at doses similar to AS-10” value (pancreatic cancer cells) is reported as “did not have any effects” and the “EC50 range, growth inhibition (comparison)” value (LNCaP cells) is reported as “millimolar range”.

O=C(/N=C1\[Se]CCN1C(=O)c1ccccc1)c1ccccc1 [ASD-171, N-(3-benzoyl-1,3-selenazolidin-2-ylidene)benzamide] was tested, and the “potency compared to AS-10” value (Lung cancer cells (A549)) was “significant loss in the potency”.

Nc1ccn([C@@H]2O[C@H](CO)[C@@H](O)C2(F)F)c(=O)n1 [gemcitabine, reference compound] was tested, and the PARP cleavage (Panc-1 cells [1]) was “no effect on PARP cleavage”, the total apoptotic cells (Panc-1 cells [2]) was roughly 25% and the “response of Panc-1 cells to treatment” value (Panc-1 cells [3]; highest tested dose 500 μM, 48 h) was “resistant”. For the same compound, the dead cells (Panc-1 cells [4]) was roughly 10%.

With CC(=O)Oc1ccccc1C(=O)/N=C1\SCCN1C(=O)c1ccccc1OC(C)=O [ASD-123, 2-((3-(2-acetoxybenzoyl)-1,3-thiazolidin-2-ylidene)carbamoyl)phenyl acetate] the “potency compared to AS-10” value (Panc-1 cells [3]; Panc-1, 48 h (FIG. 5B), Se replaced by S) was “significant loss in the potency”.
